The target of the assay is T1, STING (Homo sapiens, UniProt Q86WV6, G230A/H232R/R293Q/R71H).
T1 construct: host or cells: THP1-Dual KO-IFNAR2 cells
In words: STING reporter assay: luciferase reporter activity in THP1-Dual KO-IFNAR2 cells stimulated with 2'3'cGAMP. The class given is cell-based. The settings on record: 2′3′cGAMP 15 μM final, 24h, read-out: hSTING: EC50. Summed up:
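THP1-Dual KO-IFNAR2 cells (2×10E6 cells/mL) incubated with compounds at 0.0017-100 μM final plus Lipofectamine-transfected 2′3′cGAMP (15 μM final), 24 h at 37 °C, 5% CO2. Luciferase in supernatant read by QUANTI-Luc luminescence; EC50 derived.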

Structures are written as SMILES.

T1 sequence (Q86WV6 whole entry R71H/G230A/H232R/R293Q): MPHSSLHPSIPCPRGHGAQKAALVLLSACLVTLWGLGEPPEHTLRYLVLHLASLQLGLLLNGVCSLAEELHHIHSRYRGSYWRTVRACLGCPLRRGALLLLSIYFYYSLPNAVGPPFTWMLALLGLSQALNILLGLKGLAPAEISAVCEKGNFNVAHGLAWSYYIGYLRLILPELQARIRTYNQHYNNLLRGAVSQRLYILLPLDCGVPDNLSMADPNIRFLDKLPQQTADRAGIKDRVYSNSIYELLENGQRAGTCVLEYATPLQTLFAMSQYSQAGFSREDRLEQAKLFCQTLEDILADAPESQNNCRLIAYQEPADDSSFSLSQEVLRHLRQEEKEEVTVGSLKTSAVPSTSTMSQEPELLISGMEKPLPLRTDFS

Usually EC50 stands for the concentration that produces a half-maximal response. Turning to `O=C(Nc1c[nH]c2cc(F)c(F)cc12)C(=O)N[C@H]1CC[C@H](Oc2ccc(C(F)(F)F)nc2)CC1` [Compound 223, N-(5,6-difluoro-1H-indol-3-yl)-N′-[trans-4-[[6-(trifluoromethyl)pyridin-3-yl]oxy]cyclohexyl]ethanediamide], the concentration for a half-maximal effect (EC50) fell in the range of 0.2 to 1 µM.
For the molecule `O=C(Nc1c[nH]c2cc(F)c(F)cc12)C(=O)NC1CCC(Oc2ccc(C(F)(F)F)nc2)CC1` (stereo not drawn) [Compound 224], the EC50 lay in the range of 0.04 to 0.2 µM.
Regarding `O=C(Nc1c[nH]c2cc(F)ccc12)C(=O)NC1CCC(Oc2ccc(C(F)(F)F)cn2)CC1` (stereo not drawn) [Compound 225, N-(6-fluoro-1H-indol-3-yl)-N′-(4-((5-(trifluoromethyl)pyridin-2-yl)oxy)cyclohexyl)oxalamide], the EC50 fell in the range of 0.04 to 0.2 µM.
In the case of `O=C(Nc1c[nH]c2cc(F)c(F)cc12)C(=O)NC1CC(Oc2ccc(C(F)(F)F)cn2)C1` (stereo not drawn) [Compound 226], the EC50 is 0.04 to 0.2 µM.
Regarding `O=C(Nc1c[nH]c2cc(F)c(F)cc12)C(=O)N[C@H]1CC[C@@H](Oc2ccc(C(F)(F)F)cn2)CC1` [Compound 229], the 50% effective concentration (EC50) is 1 to 5 µM.
As to `O=C(Nc1c[nH]c2cc(F)c(F)cc12)C(=O)N[C@H]1CC[C@H](Oc2ccc(C(F)(F)F)cn2)CC1` [Compound 230, N-(5,6-difluoro-1H-indol-3-yl)-N′-[trans-4-[[5-(trifluoromethyl)pyridin-2-yl]oxy]cyclohexyl]ethanediamide], the EC50 lay within 0.04 to 0.2 µM.
With `N#Cc1cc(NC(=O)C(=O)Nc2c[nH]c3cc(F)c(F)cc23)cnc1N1CCCC1` [Compound 231], the EC50 was in the range of 0.2 to 1 µM.
The same measure for `Cc1cc(NC(=O)C(=O)Nc2c[nH]c3cc(F)c(-c4cnn(C)c4)cc23)cnc1N1CCC(F)(F)CC1` [Compound 232]: 1 to 5 µM; for `O=C(Nc1c[nH]c2cc(F)c(F)cc12)C(=O)N[C@H]1CCCC(Oc2ccc(C(F)(F)F)cc2)C1` (stereo partly drawn) [Compound 233]: 0.2 to 1 µM; for `O=C(Nc1c[nH]c2cc(F)c(F)cc12)C(=O)N[C@@H]1CCCC(Oc2ccc(C(F)(F)F)cc2)C1` (stereo partly drawn) [Compound 234]: 0.2 to 1 µM.
Take `O=C(Nc1cnc(-n2nccn2)c(C(F)(F)F)c1)C(=O)Nc1c[nH]c2cc(F)c(F)cc12` [Compound 238, N1-(6-(2H-1,2,3-triazol-2-yl)-5-(trifluoromethyl)pyridin-3-yl)-N2-(5,6-difluoro-1H-indol-3-yl)oxalamide]: the concentration for a half-maximal effect (EC50) is 1 to 5 µM.
Then `O=C(Nc1c[nH]c2cc(F)c(F)cc12)C(=O)N1CCN(c2ccc(CC(F)(F)F)cn2)CC1` [Compound 241], with 0.2 to 1 µM; and `Cc1ccc(CNC(=O)C(=O)Nc2c[nH]c3cc(F)c(F)c(Br)c23)cc1C(F)(F)F` [Compound 242], with 5 to 100 µM; and `O=C(Nc1c[nH]c2cc(F)c(F)cc12)C(=O)N[C@H]1CC[C@@H](Oc2ccc(C(F)(F)F)cc2)CC1` [Compound 249], with 1 to 5 µM.
Then `O=C(Nc1c[nH]c2cc(F)c(F)cc12)C(=O)N[C@H]1CC[C@H](Oc2ccc(C(F)(F)F)cc2)CC1` [Compound 250, N-(5,6-difluoro-1H-indol-3-yl)-N′-(trans-4-(4-(trifluoromethyl)phenoxy)cyclohexyl)oxalamide], with 0.04 to 0.2 µM; and `O=C(Nc1c[nH]c2cc(F)c(F)cc12)C(=O)N1CCC(Cc2ccc(C(F)(F)F)cc2)CC1` [Compound 251], with 1 to 5 µM; and `O=C(Nc1c[nH]c2cc(F)c(F)cc12)C(=O)N1CCC2(CCCCC2)CC1` [Compound 252], with 1 to 5 µM.
The same measure for `O=C(Nc1c[nH]c2cc(F)c(F)cc12)C(=O)N1CCN(Cc2ccc(C(F)(F)F)cc2)CC1` [Compound 253]: 0.2 to 1 µM; for `Cc1ccccc1N1C2CCC1CC(NC(=O)C(=O)Nc1c[nH]c3cc(F)c(F)cc13)C2` (stereo not drawn) [Compound 254]: 0.2 to 1 µM; for `O=C(Nc1c[nH]c2cc(F)c(F)cc12)C(=O)NC1CCC(Oc2ccc(C(F)(F)F)cn2)CC1` (stereo not drawn) [Compound 255]: 5 to 100 µM.
`O=C(Nc1c[nH]c2cc(F)c(F)cc12)C(=O)NC1CCN(Cc2ccccc2)C2(CCCCC2)C1` (stereo not drawn) [Compound 256]: the EC50 fell in the range of 1 to 5 µM.
Then `O=C(NCC1COc2ccccc2O1)C(=O)Nc1c[nH]c2cc(F)c(F)cc12` (stereo not drawn) [Compound 261, N-(5,6-difluoro-1H-indol-3-yl)-N′-[(2,3-dihydro-1,4-benzodioxin-2-yl)methyl] ethanediamide], with 0.2 to 1 µM; and `O=C(Nc1ccc2c(cnn2Cc2cccc(F)c2)c1)C(=O)Nc1c[nH]c2cc(F)c(F)cc12` [Compound 262, N-(5,6-difluoro-1H-indol-3-yl)-N′-{1-[(3-fluorophenyl)methyl]-1H-indazol-5-yl}ethanediamide], with 0.2 to 1 µM.
The same measure for `O=C(Nc1ccc(C(F)(F)F)cc1)C(=O)Nc1c[nH]c2ccc(I)cc12` [Compound 263]: 0.2 to 1 µM; for `O=C(Nc1c[nH]c2cc(F)c(F)cc12)C(=O)N[C@H]1CCN(c2ccc(C(F)(F)F)cn2)C1` [Compound 264, (S)-N-(5,6-difluoro-1H-indol-3-yl)-N′-(1-(5-(trifluoromethyl)pyridin-2-yl)pyrrolidin-3-yl)oxalamide]: 0.2 to 1 µM; for `O=C(Nc1ccc(-n2cncn2)c(Cl)c1)C(=O)Nc1c[nH]c2cc(F)c(F)cc12` [Compound 265, N′-[3-chloro-4-(1H-1,2,4-triazol-1-yl)phenyl]-N-(5,6-difluoro-1H-indol-3-yl)ethanediamide]: 1 to 5 µM.
Then `CN1CCOc2cc(NC(=O)C(=O)Nc3c[nH]c4cc(F)c(F)cc34)ccc21` [Compound 266, N-(5,6-difluoro-1H-indol-3-yl)-N′-(4-methyl-3,4-dihydro-2H-1,4-benzoxazin-7-yl)ethanediamide], with 0.2 to 1 µM.
Regarding `CC(C)(C)OC(=O)N1CC2CC(NC(=O)C(=O)Nc3c[nH]c4cc(F)c(F)cc34)CC2C1` (stereo not drawn) [Compound 267, tert-butyl 5-{[(5,6-difluoro-1H-indol-3-yl)carbamoyl] formamido}-octahydrocyclopenta[c] pyrrole-2-carboxylate], the 50% effective concentration (EC50) was in the range of 0.2 to 1 µM.
Then `O=C(Nc1ccc2c(c1)CCCC2=O)C(=O)Nc1c[nH]c2cc(F)c(F)cc12` [Compound 268, N-(5,6-difluoro-1H-indol-3-yl)-N′-(5-oxo-5,6,7,8-tetrahydro-naphthalen-2-yl)ethanediamide], with 0.2 to 1 µM; and `O=C(NCCc1ccc(C(F)(F)F)cn1)C(=O)Nc1c[nH]c2cc(F)c(F)cc12` [Compound 269, N-(5,6-difluoro-1H-indol-3-yl)-N′-{2-[5-(trifluoromethyl)pyridin-2-yl]ethyl}ethanediamide], with 0.2 to 1 µM; and `N#Cc1ccc(OC2CCC(NC(=O)C(=O)Nc3c[nH]c4cc(F)c(F)cc34)CC2)cc1` (stereo not drawn) [Compound 270, N′-[4-(4-cyanophenoxy)cyclohexyl]-N-(5,6-difluoro-1H-indol-3-yl)ethanediamide], with 0.2 to 1 µM.
`CC(C)(C)OC(=O)N1CCC2(CC1)CC(NC(=O)C(=O)Nc1c[nH]c3cc(F)c(F)cc13)CO2` (stereo not drawn) [Compound 271, tert-butyl 3-{[(5,6-difluoro-1H-indol-3-yl)carbamoyl] formamido}-1-oxa-8-azaspiro[4.5]decane-8-carboxylate]: the EC50 is 1 to 5 µM.
Then `COc1ccc(Oc2ccc(NC(=O)C(=O)Nc3c[nH]c4cc(F)c(F)cc34)cc2C)cn1` [Compound 272, N-(5,6-difluoro-1H-indol-3-yl)-N′-{4-[(6-methoxypyridin-3-yl)oxy]-3-methylphenyl} ethanediamide], with 0.2 to 1 µM.
In the case of `O=C(Nc1ccc2c(c1)oc(=O)n2Cc1ccccc1)C(=O)Nc1c[nH]c2cc(F)c(F)cc12` [Compound 273, N′-(3-benzyl-2-oxo-2,3-dihydro-1,3-benzoxazol-6-yl)-N-(5,6-difluoro-1H-indol-3-yl)ethanediamide], the EC50 is 0.2 to 1 µM.
The same measure for `O=C(Nc1cnc2c(c1)CCC2)C(=O)Nc1c[nH]c2cc(F)c(F)cc12` [Compound 274, N′-{5H,6H,7H-cyclopenta[b]pyridin-3-yl}-N-(5,6-difluoro-1H-indol-3-yl)ethanediamide]: 1 to 5 µM; for `O=C(NCC(=O)c1cccc(C(F)(F)F)c1)C(=O)Nc1c[nH]c2cc(F)c(F)cc12` [Compound 275, N-(5,6-difluoro-1H-indol-3-yl)-N′-{2-oxo-2-[3-(trifluoromethyl)phenyl]ethyl} ethanediamide]: 0.2 to 1 µM.
As for `CC(COc1ccc(C(F)(F)F)cc1)NC(=O)C(=O)Nc1c[nH]c2cc(F)c(F)cc12` (stereo not drawn) [Compound 276, N-(5,6-difluoro-1H-indol-3-yl)-N′-{1-[4-(trifluoromethyl)phenoxy]propan-2-yl}ethanediamide], the EC50 was 0.2 to 1 µM.
Take `O=C(NCC(c1ccccc1)n1ccnc1)C(=O)Nc1c[nH]c2cc(F)c(F)cc12` (stereo not drawn) [Compound 277, N-(5,6-difluoro-1H-indol-3-yl)-N′-[2-(1H-imidazol-1-yl)-2-phenylethyl] ethanediamide]: the EC50 lay in the range of 5 to 100 µM.
Regarding `O=C(Nc1c[nH]c2cc(F)c(F)cc12)C(=O)NC1CCOC2(CCCC2)C1` (stereo not drawn) [Compound 278], the concentration giving a half-maximal response (EC50) lay in the range of 1 to 5 µM.
On to `O=C(Nc1c[nH]c2cc(F)c(F)cc12)C(=O)NC1CCC2(CCCC2)C1` (stereo not drawn) [Compound 279], for which the half-maximal effective concentration (EC50) fell in the range of 0.2 to 1 µM.
Then `O=C(Nc1c[nH]c2cc(F)c(F)cc12)C(=O)NC1CCC2(CCCCC2)C1` (stereo not drawn) [Compound 280], with 0.2 to 1 µM; and `O=C(Nc1c[nH]c2cc(F)c(F)cc12)C(=O)NC1CCCC2(CCCCC2)C1` (stereo not drawn) [Compound 281], with 0.2 to 1 µM.
The same measure for `O=C(Nc1c[nH]c2cc(F)c(F)cc12)C(=O)NC1CCC2(CCCCO2)CC1` (stereo not drawn) [Compound 282]: 0.2 to 1 µM.
Then `CC(CN(C)c1ccccn1)NC(=O)C(=O)Nc1c[nH]c2cc(F)c(F)cc12` (stereo not drawn) [Compound 284], with 1 to 5 µM.
In the case of `Cc1ccc(CNC(=O)C(=O)Nc2c[nH]c3ccc(-c4cnn(CC(F)(F)F)c4)cc23)cc1OC(F)(F)F` [Compound 285], the EC50 was 0.04 to 0.2 µM.

These data come from US20230021448A1, “COMPOUNDS AND COMPOSITIONS FOR TREATING CONDITIONS ASSOCIATED WITH STING ACTIVITY” (IFM Due, Inc., priority 2019, published 2023).
